# Active and inactive are the calls of the source.
# What was measured:
# Protein RecA = target: T1, Protein RecA (Mycobacterium tuberculosis, UniProt P9WHJ3); test: Fluorescence Cell-Free Homogeneous Dose Retest to Identify Inhibitors of RecA-Intein Splicing Activity. [Related pubchem assays (depositor defined):AID2097, AID2223, AID489010, AID492950]; assay type: functional
# T1 sequence (P9WHJ3 whole entry): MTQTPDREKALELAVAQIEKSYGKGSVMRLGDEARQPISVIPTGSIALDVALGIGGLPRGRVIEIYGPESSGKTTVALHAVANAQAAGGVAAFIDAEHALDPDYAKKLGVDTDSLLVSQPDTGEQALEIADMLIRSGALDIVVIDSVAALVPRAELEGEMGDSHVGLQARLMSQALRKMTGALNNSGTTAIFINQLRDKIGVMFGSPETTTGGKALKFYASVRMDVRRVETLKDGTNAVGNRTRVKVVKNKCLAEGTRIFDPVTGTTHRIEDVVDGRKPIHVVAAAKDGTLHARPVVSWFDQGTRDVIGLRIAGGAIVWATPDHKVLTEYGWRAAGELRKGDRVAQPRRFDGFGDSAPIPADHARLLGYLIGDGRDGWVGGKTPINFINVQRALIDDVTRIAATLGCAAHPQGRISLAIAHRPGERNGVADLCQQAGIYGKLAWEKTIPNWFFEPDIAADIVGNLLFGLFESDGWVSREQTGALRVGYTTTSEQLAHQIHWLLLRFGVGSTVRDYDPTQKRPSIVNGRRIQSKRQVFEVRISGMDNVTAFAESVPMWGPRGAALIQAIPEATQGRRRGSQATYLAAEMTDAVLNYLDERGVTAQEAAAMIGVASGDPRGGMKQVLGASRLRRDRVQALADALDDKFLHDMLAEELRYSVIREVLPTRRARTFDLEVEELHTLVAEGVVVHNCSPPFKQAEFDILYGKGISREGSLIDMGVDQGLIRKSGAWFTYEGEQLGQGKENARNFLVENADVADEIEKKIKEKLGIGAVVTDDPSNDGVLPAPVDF
# Leucine aminopeptidase = target: T2, Leucine aminopeptidase (Plasmodium falciparum 3D7, UniProt Q8IL11); test: P. falciparum M17LAP inhibitors, primary screen, biochemical, fluorogenic H-Leu-NHMec substrate, 1536-well (AID 1619); assay type: functional
# T2 sequence (Q8IL11 whole entry): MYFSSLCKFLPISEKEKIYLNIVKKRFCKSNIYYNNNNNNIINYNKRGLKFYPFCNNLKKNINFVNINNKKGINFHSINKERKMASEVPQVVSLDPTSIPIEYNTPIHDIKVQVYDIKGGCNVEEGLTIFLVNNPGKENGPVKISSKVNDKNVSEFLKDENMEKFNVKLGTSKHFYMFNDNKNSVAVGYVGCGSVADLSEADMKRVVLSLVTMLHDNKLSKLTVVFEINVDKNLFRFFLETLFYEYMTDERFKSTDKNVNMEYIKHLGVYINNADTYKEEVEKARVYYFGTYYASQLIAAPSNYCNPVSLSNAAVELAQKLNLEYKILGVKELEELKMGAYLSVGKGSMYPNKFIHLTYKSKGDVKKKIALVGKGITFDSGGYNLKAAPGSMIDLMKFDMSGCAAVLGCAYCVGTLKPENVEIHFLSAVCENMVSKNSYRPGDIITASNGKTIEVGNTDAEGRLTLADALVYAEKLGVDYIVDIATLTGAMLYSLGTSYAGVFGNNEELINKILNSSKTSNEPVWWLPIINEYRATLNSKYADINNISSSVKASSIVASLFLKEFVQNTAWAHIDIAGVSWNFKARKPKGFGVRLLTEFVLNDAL
# [1] = target: T3, Replicative DNA helicase DnaB (Mycobacterium tuberculosis, UniProt P9WMR3); test: DnaB intein splicing inhibitors, dose response, biochemical, cell-free fluorescence (AID 449749); assay type: functional
# T3 sequence (P9WMR3 whole entry): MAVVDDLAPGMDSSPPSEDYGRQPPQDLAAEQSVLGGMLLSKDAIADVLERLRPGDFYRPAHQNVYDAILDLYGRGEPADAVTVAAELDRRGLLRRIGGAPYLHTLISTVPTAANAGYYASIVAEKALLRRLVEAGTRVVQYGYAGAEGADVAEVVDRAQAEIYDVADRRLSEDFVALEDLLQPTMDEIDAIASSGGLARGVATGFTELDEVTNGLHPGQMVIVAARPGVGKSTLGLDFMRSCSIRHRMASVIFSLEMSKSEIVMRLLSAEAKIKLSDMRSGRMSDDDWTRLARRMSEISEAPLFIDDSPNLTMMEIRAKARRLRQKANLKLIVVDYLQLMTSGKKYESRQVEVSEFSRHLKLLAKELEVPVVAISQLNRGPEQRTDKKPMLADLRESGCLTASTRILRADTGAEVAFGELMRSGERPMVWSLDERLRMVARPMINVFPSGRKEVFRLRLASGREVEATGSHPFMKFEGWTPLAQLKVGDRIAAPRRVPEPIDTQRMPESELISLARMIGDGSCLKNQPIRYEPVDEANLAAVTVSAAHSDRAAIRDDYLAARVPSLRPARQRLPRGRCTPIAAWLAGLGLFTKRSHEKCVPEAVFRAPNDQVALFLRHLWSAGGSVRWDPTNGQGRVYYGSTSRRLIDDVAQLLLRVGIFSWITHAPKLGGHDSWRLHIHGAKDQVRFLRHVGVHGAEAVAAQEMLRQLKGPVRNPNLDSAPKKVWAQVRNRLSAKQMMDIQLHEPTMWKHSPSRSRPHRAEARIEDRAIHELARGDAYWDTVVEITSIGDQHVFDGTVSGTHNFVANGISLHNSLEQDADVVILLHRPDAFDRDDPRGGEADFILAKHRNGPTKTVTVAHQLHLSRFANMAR
# [2] = target: T4, Heat shock factor protein 1 (Mus musculus, UniProt P38532); test: HSF1 potentiators in luciferase reporter cells, confirmation, cell-based, NIH3T3, luminescence, dose retest (AID 435004); assay type: functional;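 further: stress induced by proteasome inhibitor MG132 added 30 min after compound; luciferase reporter driven by HSF1 response element in NIH3T3 cells; actives raise luminescence as potentiators of the MG132 stress response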
# T4 sequence (P38532 whole entry): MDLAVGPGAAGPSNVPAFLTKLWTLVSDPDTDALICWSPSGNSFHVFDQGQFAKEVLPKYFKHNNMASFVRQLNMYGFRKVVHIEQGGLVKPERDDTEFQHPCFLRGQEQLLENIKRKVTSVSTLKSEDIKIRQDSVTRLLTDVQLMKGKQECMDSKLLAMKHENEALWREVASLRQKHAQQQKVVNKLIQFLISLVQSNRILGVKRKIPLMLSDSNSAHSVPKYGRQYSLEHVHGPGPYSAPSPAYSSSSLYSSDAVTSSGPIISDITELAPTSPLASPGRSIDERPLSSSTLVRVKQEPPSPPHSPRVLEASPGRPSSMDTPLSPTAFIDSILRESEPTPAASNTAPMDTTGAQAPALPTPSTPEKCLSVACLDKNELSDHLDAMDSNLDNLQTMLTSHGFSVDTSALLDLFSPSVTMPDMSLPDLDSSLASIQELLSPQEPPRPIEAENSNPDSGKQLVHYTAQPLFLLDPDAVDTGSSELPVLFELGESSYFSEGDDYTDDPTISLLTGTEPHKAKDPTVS
# [3] = target: Glyceraldehyde-3-phosphate dehydrogenase (Homo sapiens, UniProt P04406)
# Glyceraldehyde-3-phosphate dehydrogenase, sequence (P04406 whole entry): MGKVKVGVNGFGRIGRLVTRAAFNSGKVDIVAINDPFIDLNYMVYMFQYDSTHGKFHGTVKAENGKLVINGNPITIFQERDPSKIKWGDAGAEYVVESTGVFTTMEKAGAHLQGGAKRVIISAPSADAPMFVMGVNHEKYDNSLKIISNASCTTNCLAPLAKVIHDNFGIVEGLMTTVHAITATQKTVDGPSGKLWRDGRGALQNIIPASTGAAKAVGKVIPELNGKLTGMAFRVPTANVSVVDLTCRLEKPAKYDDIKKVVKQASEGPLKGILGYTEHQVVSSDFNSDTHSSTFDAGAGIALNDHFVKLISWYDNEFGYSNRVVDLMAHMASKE
# [4] = THP-1 cell cytotoxicity, dose response, cytotoxicity control for Vif-APOBEC3G degradation inhibitor project, THP-1 cells (AID 1117359); assay type: functional; conditions: Human immunodeficiency virus 1, THP-1
smiles,measurement,setting,value
CC(=O)N1CCC2(CC1)C(C#N)=C(N)Oc1[nH]nc(CSc3ccc(C)cc3)c12,EC50,Protein RecA,2.9 µM (active)
same,IC50,Leucine aminopeptidase,21.1 µM (active)
same,AC50,[1],4.72 µM (active)
O=C(O)C1CCCCC1C(=O)Nc1ccc2c(c1)CCC2 (stereo not drawn),EC50,[2],> 260 µM (inactive)
same,IC50,Leucine aminopeptidase,9.16 µM (active)
Cc1oc(-c2cc(Cl)cc(Cl)c2)cc1C(=O)Nc1ccc(S(N)(=O)=O)cc1,IC50,[3],> 100 µM (not active)
CC1CCc2[nH]c3ccc(C(=O)N(C)CC(=O)Nc4ccc(F)cc4)cc3c2C1 (stereo not drawn),CC50,[4],> 40 µM (active)
O=C(CSc1nnc[nH]1)Nc1ccc2c(c1)CCC2,IC50,Leucine aminopeptidase,22.3 µM (active)
